The text below walks through data of US8338414B2, “Immunosuppressive agent and anti-tumor agent comprising heterocyclic compound as active ingredient” (Zenyaku Kogyo KabushikiKaisha, priority 2005, dated 2012).

Molecules are shown by their SMILES.

One series relates to fulminant hepatitis. Nature of the series: Fulminant hepatitis model (galactosamine and LPS). Conditions: BALB/c mice, galactosamine 800 mg/kg and LPS 110 μg/kg i.p. It is filed as in vivo, mouse. The protocol:
BALB/c male mice (7 weeks old, purchased from Charles River Laboratories Japan Inc.) were used in the experiment. After having orally administered the test substances suspended in 5% HPC, galactosamine (800 mg/kg) and LPS (110 μg/kg) were intraperitoneally administered. Then, survival rates at 72 hours after administration were obtained.

The test system of another series is Jurkat cells. Nature of the series: Proliferation inhibitory activity on hematologic neoplasm cells, Jurkat. Type of series: cell-based. The conditions noted are these: Homo sapiens, Jurkat, 72 h; 3 days, Alamar Blue.
In series [1] the test system is Rabbit synoviocytes HIG-82. Description: Inhibition assay for proliferation of rabbit synoviocyte. It is filed as cell-based. The conditions noted are these: Oryctolagus cuniculus, 72 h; HIG-82, 3 days, Alamar Blue.
Series [2] in a line: Toxicologic test for single oral administration. Conditions: rat, in vivo, po, 1200 mg/kg.
For the next series, the system named is THP-1 cells. Nature of the series: Proliferation inhibitory activity on hematologic neoplasm cells, THP-1. Conditions: Homo sapiens, THP-1, 72 h; 3 days, Alamar Blue. Type of series: cell-based.
A further series relates to U 937 cells. Nature of the series: Proliferation inhibitory activity on hematologic neoplasm cells, U937. Type of series: cell-based. The conditions noted are these: Homo sapiens, U-937, 72 h; 3 days, Alamar Blue.
In series [3] the test system is allogeneic mixed lymphocyte reaction. Nature of the series: Allogeneic mixed lymphocyte reaction. The conditions noted are these: Mus musculus, Lymphocyte; C57BL/6N spleen stimulator cells, BALB/c lymph node responder cells, 86 hours, BrdU. It is filed as cell-based, mouse. In short, it runs like this:
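Stimulators were C57BL/6N female spleen cells and responders BALB/c female peripheral lymph node mononuclear cells (mice 8-10 weeks old). Cells suspended at 2×10^6 cells/mL in RPMI 1640 with 10% FBS and antibiotics.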

In another series the test system is Daudi cells. Nature of the series: Proliferation inhibitory activity on hematologic neoplasm cells, Daudi. It is filed as cell-based. The conditions noted are these: Homo sapiens, Daudi, 72 h; 3 days, Alamar Blue.
The subject of series [4] is human peripheral blood mononuclear cells. Nature of the series: Proliferation inhibition assay for human peripheral blood mononuclear cells. Type of series: cell-based. The conditions noted are these: Homo sapiens, 72 h; PBMC, anti-CD3 and anti-CD28 antibody, 3 days, Alamar Blue. In short, it runs like this: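 PBMC from healthy donors (1×10^5 cells/mL) in RPMI 1640 with 10% FBS were stimulated with plate-bound anti-CD3 plus anti-CD28 (1 μg/mL). Serially diluted compounds were added and cells were cultured 3 days at 37 °C. Alamar Blue was then added for 1 day and fluorescence was read at ex 530/em 590 nm.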

For series [5], the system named is collagen-induced arthritis. Nature of the series: Collagen-induced arthritis inhibitory action. Type of series: in vivo, mouse. The conditions noted are these: DBA1 mice. The protocol: Bovine type II collagen suspended in Freund's complete adjuvant was intradermally administered to the base of tail of DBA1 male mice (7 weeks old, purchased from Charles River Laboratories Japan Inc.) on day 1 and day 21. Then, from day 28 when 50% of the mice developed arthritis, the test substances suspended in 0.5% hydroxypropylcellulose (HPC) were orally administered on consecutive days. Here, the efficacy was evaluated by scoring the arthritis. Specifically, for each paw, the degree of arthritis was evaluated according to: no symptoms: 0; redness or swelling of one joint: 1; redness or swelling for two or more joints: 2; redness or swelling over the entire paw: 3; and maximum redness or swelling over the entire paw: 4.

The test system of series [6] is Salmonella typhimurium TA98, TA100, TA1535, TA1537 and Escherichia coli WP2uvrA. Description: Ames test. It is filed as cell-based. Conditions: preincubation method, with or without S-9, up to 5000 μg/flat plate. The protocol:
Using 5 strains of Salmonella typhimurium TA98, TA100, TA1535, TA1537 and Escherichia coli WP2uvrA, the test substances (Compound 4, Compound 19, Compound 22 and Compound 24) were tested for their mutagenesis according to a preincubation method.

As for `FC(F)c1nc2ccccc2n1-c1nc(N2CCOCC2)nc(N2CCOCC2)n1` [Compound 4, 2-(2-Difluoromethylbenzimidazol-1-yl)-4,6-dimorpholino-1,3,5-triazine], the entries for the “Survival Rate after 72 Hours” value in the series on fulminant hepatitis (50 mg/kg oral) and with fulminant hepatitis (100 mg/kg oral) were 60% and 83%, respectively. The IC50 was 1950 nM in the series with Jurkat cells; 953 nM in series [1]; 511 nM in the series with THP-1 cells; 3.24 µM in the series with U 937 cells; 218 nM in series [3]; 105 nM in the series with Daudi cells. In [4], inhibition was half-maximal at 312 nM (IC50). Also, in series [2], the “death after single oral dose” value was “no examples of death were recognized”. The “arthritis score, difference versus control group” value in series [5] (50 mg/kg oral, after day 44 (conditions exacerbated after day 40)) is listed as “no significant difference was recognized in comparison with the control group”. The “arthritis score, efficacy versus control group” value in [5] (50 or 100 mg/kg oral, after day 30, Dunnett's test P<0.05) is on record as “a statistically significant efficacy was recognized”. Further, the “progression of collagen-induced arthritis (arthritis score)” value in [5] (oral on consecutive days from day 28) was “inhibited the progression of the collagen-induced arthritis in a dose-dependent manner”. For the same compound, the “mutagenesis (colony number of reverse mutation)” value in series [6] is “negative”.
